Results as given in ChEMBL document CHEMBL1201862, “PubChem BioAssay data set” (2004).
The source made the active and inactive calls.

How the values were obtained:
[1] = target: Mucolipin-3 (Homo sapiens, UniProt Q8TDD5); assay: Dose response cell-based high-throughput screening assay for agonists of the transient receptor potential channel ML3 (TRPML3). [Related pubchem assays: 1526, 1424, 1448 ]; assay type: functional
[2] = target: Ion channel NompC (Danio rerio, UniProt Q7T1G6); assay: Fluorescence counterscreen assay for TRPML3 agonists: dose response cell-based high-throughput screening assay to identify agonists of the transient receptor potential channel N1 (TRPN1). [Related pubchem assays: 1526, 1424, 1448 ]; assay type: functional
Ion channel NompC, sequence (Q7T1G6 whole entry): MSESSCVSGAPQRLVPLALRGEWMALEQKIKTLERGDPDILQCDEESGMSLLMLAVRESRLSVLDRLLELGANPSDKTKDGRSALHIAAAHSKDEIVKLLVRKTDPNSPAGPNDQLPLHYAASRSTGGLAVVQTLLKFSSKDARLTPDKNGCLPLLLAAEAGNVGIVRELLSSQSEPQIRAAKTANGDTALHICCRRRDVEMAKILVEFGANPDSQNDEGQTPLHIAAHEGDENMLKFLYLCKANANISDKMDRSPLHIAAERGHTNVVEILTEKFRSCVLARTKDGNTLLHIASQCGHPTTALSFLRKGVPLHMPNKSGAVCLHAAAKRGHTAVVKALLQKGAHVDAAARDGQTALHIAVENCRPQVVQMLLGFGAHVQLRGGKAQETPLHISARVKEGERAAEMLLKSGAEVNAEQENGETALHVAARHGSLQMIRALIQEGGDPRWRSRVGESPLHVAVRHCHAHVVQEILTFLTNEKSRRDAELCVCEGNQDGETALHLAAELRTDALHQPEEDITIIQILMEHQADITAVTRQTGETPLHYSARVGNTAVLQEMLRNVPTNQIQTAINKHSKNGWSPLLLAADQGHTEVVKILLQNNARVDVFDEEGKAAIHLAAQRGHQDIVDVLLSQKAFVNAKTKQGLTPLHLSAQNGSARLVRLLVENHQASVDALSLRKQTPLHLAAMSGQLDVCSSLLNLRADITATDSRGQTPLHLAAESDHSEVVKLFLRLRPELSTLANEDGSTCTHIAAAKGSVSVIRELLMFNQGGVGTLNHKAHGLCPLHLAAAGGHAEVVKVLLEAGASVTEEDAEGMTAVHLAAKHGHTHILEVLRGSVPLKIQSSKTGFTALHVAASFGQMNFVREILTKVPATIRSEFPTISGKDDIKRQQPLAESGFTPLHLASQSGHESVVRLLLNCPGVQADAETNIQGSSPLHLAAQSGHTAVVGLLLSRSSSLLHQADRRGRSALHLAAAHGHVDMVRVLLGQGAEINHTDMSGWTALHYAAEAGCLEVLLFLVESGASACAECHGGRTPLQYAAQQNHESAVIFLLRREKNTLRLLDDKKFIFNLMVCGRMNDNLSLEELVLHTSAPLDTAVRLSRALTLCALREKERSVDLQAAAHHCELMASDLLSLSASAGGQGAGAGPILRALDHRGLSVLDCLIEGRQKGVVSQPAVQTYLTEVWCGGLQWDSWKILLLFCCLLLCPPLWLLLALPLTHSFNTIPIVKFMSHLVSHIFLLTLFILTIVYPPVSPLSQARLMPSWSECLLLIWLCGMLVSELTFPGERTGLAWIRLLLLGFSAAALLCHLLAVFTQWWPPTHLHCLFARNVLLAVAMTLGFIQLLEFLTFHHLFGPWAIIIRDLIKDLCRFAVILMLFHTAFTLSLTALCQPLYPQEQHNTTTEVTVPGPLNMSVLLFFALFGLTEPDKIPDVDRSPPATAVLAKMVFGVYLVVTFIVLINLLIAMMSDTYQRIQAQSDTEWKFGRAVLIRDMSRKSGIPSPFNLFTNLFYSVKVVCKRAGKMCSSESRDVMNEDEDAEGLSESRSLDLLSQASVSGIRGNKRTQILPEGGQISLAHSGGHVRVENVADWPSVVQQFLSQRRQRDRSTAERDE

[3] = target: DNA dC->dU-editing enzyme APOBEC-3G (Homo sapiens, UniProt Q9HC16); assay type: functional;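 note: Dose-response counterscreen measuring inhibition of APOBEC3G DNA deaminase activity, run while confirming APOBEC3A inhibitors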
DNA dC->dU-editing enzyme APOBEC-3G, sequence (Q9HC16 whole entry): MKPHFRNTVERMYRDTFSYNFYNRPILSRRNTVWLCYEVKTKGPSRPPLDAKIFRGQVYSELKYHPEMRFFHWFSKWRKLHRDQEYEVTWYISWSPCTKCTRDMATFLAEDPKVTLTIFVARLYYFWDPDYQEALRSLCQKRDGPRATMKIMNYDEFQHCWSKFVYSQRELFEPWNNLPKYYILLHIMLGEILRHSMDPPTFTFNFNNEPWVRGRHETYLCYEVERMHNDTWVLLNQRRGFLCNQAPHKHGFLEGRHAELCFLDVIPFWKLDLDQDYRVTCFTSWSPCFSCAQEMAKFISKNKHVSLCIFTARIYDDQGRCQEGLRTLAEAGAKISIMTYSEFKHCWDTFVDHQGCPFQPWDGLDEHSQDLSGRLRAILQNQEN

[4] = target: DNA dC->dU-editing enzyme APOBEC-3A (Homo sapiens, UniProt P31941); assay: Dose Response confirmation of small molecule APOBEC3A DNA Deaminase Inhibitors via a fluorescence-based single-stranded DNA deaminase assay. [Related pubchem assays (depositor defined):AID493011, AID493024]; assay type: functional
DNA dC->dU-editing enzyme APOBEC-3A, sequence (P31941 whole entry): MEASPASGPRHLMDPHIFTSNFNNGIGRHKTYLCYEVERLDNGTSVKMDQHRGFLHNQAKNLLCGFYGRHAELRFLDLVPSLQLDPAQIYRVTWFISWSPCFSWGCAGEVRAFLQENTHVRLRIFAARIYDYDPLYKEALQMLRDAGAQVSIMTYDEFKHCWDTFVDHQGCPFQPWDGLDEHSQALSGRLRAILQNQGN

[5] = target: Eukaryotic translation initiation factor 4H (Homo sapiens, UniProt Q15056); assay: eIF4H binding inhibition – biochemical, uHTS, fluorescence polarization, translation initiation inhibitor project, primary screen (AID 2012)
[6] = target: Polyadenylate-binding protein 1 (Homo sapiens, UniProt P11940); assay: blockers of PABP interaction with poly(A) – biochemical, fluorescence polarization, […] (AID 2014)
[7] = A High Throughput Confirmatory Assay used to Identify Novel Compounds that Inhibit Mycobacterium Tuberculosis in the absence of Glycerol.; assay type: functional
[8] = viability loss in HeLa cells – cytotoxicity control for MgcRacGAP inhibitor project, dose response (AID 624300); assay type: functional
[9] = NIH-3T3 fibroblast cytotoxicity, dose response, cytotoxicity control, cell-based, fluorescence, Alamar Blue, secondary assay (AID 2327); assay type: functional;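 note: NIH-3T3 mouse fibroblasts cultured with fluconazole at 8 µg/mL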
[10] = cells; assay type: functional, cell-based
[11] = target: Transitional endoplasmic reticulum ATPase (Homo sapiens, UniProt P55072); assay: p97 ATPase inhibitors, dose response, biochemical (AID 1534)
Transitional endoplasmic reticulum ATPase (Homo sapiens, UniProt P55072), sequence (P55072 whole entry): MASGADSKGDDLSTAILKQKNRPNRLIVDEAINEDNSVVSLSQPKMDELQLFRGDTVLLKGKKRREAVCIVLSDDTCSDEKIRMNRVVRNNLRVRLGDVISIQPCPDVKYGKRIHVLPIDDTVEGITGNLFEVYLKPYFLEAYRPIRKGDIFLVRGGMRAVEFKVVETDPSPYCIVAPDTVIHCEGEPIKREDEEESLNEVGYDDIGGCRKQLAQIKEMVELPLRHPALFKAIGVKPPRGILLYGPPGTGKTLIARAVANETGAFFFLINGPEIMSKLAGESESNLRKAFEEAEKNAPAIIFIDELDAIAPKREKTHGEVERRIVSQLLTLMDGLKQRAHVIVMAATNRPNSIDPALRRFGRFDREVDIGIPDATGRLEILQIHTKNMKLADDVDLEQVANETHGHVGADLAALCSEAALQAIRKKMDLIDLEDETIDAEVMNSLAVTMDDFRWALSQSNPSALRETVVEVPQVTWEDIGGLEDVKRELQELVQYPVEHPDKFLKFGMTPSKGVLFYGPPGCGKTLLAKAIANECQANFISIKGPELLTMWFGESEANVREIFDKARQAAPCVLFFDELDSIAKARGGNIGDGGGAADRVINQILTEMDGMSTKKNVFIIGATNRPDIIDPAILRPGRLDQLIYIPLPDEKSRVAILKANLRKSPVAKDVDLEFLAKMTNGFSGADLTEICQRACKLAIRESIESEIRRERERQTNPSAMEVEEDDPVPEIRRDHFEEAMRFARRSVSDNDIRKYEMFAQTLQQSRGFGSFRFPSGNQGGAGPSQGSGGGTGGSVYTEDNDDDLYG

[12] = target: Induced myeloid leukemia cell differentiation protein Mcl-1 (Homo sapiens, UniProt Q07820); assay type: functional
Induced myeloid leukemia cell differentiation protein Mcl-1, sequence (Q07820 whole entry): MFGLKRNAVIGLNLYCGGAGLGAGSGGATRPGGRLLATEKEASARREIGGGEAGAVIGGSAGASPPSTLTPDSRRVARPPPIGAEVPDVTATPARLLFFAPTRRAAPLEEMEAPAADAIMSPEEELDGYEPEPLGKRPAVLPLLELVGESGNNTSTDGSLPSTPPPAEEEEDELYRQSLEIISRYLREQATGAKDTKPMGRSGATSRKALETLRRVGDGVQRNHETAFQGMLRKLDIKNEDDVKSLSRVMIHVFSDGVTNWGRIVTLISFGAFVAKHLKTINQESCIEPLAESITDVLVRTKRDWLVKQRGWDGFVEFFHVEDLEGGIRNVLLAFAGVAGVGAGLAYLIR

[13] = decrease of insulin promoter-GFP reporter – imaging, high-content screening, mouse beta cells (AID 1628); assay type: functional; details: MIN6
[14] = target: T1, Caspase-6 (Homo sapiens, UniProt P55212); assay: inhibition of CASP6 peptide cleavage – biochemical, VEID-R110 fluorescence, cherry-pick, dose response (AID 720632)
T1 sequence (P55212 whole entry): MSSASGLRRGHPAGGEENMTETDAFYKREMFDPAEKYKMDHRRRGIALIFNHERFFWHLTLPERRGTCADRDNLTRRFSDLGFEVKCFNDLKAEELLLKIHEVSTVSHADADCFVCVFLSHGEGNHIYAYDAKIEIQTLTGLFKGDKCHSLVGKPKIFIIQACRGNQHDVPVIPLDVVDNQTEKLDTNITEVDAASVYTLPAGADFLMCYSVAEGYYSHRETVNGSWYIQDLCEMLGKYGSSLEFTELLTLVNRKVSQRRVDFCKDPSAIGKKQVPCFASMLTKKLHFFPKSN

[15] = MIN6 cell viability loss – mouse insulinoma, cytotoxicity control, dose response (AID 2122); assay type: functional;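 note: confirmatory high-throughput counterscreen run to flag cytotoxic compounds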
[16] = target: Transitional endoplasmic reticulum ATPase (Homo sapiens, UniProt P55072, C522A); assay: C522A mutant p97 ATPase inhibitors, dose response, counter-screen for p97 inhibitor project, biochemical, luminescence (AID 1544)
Transitional endoplasmic reticulum ATPase (Homo sapiens, UniProt P55072, C522A), sequence (P55072 2-806 C522A limits assumed): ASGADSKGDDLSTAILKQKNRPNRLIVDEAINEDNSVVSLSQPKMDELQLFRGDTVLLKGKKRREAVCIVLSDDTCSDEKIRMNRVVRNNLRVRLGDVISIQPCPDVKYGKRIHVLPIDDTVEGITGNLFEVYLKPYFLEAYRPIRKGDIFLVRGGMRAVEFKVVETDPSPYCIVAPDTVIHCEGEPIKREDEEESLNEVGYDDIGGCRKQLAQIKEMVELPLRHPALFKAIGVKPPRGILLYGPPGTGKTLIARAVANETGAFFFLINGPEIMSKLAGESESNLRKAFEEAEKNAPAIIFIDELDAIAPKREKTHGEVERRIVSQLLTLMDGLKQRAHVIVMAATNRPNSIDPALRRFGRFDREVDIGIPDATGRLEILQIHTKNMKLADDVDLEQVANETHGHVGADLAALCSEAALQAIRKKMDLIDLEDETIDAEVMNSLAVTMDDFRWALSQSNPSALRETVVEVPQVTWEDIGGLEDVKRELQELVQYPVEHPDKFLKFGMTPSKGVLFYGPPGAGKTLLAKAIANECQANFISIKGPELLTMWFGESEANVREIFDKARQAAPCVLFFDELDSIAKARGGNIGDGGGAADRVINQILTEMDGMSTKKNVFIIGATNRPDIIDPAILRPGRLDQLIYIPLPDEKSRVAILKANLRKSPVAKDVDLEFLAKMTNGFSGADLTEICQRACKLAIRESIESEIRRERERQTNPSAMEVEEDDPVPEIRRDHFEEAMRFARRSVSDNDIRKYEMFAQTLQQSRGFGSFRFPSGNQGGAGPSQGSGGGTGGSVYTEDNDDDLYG

[17] = target: T2, Rac GTPase-activating protein 1 (Homo sapiens, UniProt Q9H0H5); assay: blockers of MgcRacGAP-driven Rac1 GTP hydrolysis – biochemical, ADP Hunter fluorescence, primary and confirmatory, confirmation (AID 624330); assay type: functional
T2 sequence (Q9H0H5 whole entry): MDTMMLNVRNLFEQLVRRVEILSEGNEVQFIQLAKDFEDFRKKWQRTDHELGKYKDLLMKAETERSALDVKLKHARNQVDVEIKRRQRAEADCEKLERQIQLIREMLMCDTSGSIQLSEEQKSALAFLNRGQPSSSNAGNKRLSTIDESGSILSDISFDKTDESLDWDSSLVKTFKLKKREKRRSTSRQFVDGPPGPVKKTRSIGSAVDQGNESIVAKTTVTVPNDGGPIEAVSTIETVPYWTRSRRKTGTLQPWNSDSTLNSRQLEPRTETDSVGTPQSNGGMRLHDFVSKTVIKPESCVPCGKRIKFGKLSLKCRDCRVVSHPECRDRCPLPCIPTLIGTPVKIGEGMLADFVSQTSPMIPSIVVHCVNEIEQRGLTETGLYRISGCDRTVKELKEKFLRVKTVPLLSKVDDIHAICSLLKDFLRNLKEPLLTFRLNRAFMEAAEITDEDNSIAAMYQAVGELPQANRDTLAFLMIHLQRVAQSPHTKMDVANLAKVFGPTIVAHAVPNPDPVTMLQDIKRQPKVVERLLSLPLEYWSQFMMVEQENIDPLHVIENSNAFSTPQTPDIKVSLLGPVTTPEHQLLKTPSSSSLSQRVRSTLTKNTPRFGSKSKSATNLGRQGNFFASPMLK

[18] = cells; assay type: functional, cell-based; remark: listed apart in the source
[19] = target: T3, Trace amine-associated receptor 1 (Homo sapiens, UniProt Q96RJ0); assay: Counterscreen for agonists of the human trace amine associated receptor 1 (hTAAR1): Fluorescence-based cell-based high throughput dose response assay to identify hTAAR1 agonist that also desensitize TAAR1 receptor response.; assay type: functional
T3 sequence (Q96RJ0 whole entry): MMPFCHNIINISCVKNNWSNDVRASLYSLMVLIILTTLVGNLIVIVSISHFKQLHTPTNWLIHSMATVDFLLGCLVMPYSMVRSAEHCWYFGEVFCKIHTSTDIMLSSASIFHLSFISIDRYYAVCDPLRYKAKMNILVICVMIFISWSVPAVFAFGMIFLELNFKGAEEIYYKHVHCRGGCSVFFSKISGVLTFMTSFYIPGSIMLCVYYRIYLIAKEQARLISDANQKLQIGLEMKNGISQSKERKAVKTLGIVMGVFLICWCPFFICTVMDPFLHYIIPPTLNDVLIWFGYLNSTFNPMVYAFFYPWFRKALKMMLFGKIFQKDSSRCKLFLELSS

[20] = target: T3, Trace amine-associated receptor 1; assay: Fluorescence-based cell-based high throughput dose response assay to identify agonists of the human trace amine associated receptor 1 (TAAR1).; assay type: functional
[21] = target: Trypsin (Sus scrofa, UniProt P00761); assay: trypsin protease activity blockade – biochemical, quenched peptide fluorescence, cherry-pick, selectivity assay for Rce1 protease inhibitor project, dose response (AID 488789)

Mucolipin-3, sequence (Q8TDD5 whole entry): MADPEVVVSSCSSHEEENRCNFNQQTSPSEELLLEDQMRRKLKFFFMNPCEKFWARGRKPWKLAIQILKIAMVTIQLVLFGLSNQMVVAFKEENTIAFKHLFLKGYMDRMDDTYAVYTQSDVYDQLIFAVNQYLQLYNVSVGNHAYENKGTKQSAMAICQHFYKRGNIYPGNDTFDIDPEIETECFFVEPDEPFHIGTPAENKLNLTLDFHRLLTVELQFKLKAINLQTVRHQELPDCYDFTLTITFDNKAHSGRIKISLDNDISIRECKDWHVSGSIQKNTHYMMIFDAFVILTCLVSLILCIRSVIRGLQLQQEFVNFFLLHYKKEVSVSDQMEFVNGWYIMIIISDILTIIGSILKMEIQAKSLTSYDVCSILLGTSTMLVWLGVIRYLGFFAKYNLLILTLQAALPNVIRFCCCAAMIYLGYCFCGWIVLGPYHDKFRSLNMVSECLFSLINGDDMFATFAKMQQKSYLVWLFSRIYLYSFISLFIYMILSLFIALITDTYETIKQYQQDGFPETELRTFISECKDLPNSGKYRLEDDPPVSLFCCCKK

COc1cc(S(=O)(=O)N2CCCCCC2)ccc1Cl
EC50 [1]: 1.9 µM (active) | EC50 [2]: > 29.9 µM (not active)

C[n+]1ccccc1/C=C1\Sc2ccccc2N1CCO
IC50 [3]: 2.53 µM (active) | IC50 [4]: 1.08 µM (active) | IC50 [5]: > 100 µM (inactive) | IC50 [6]: 2.22 µM (active)

Cc1ccc(NC(=O)c2sccc2-n2cccc2)c(C)c1
IC50 [7]: > 100 µM (active)

Oc1ccc(/C=N/Nc2ccnc3cc(Cl)ccc23)cc1O
CC50 [8]: 43.5 µM (active) | EC50 [9]: 7.32 µM (active) | IC50 [10]: > 29.9 µM (inactive) | IC50 [11]: 36.5 µM (not active) | IC50 [12]: 4.73 µM (active) | IC50 [13]: 3.02 µM (active) | AC50 [14]: 1.61 µM (active) | IC50 [15]: 6.19 µM (active) | IC50 [16]: > 50 µM (not active) | IC50 [17]: 30 µM (active) | EC50 [18]: > 29.9 µM (inactive) | IC50 [19]: 2.47 µM (active) | EC50 [20]: 0.498 µM (active)

O=S1(=O)CCC(/N=C/c2ccc(-c3ccc(Cl)cc3)o2)C1 (centres undefined)
IC50 [7]: > 100 µM (active)

CSC1=NSC2=NC(=O)/C(=C\c3c(C)[nH]c4ccccc34)C(=N)N12
IC50 [11]: 21.7 µM (not active) | IC50 [16]: > 50 µM (not active)

N=C(N)NC(=O)c1nc(Cl)c(N)nc1N
AC50 [21]: 9.3 µM (active)
